# Test results reported in US20070043327A1, “Drug delivery device comprising a mesh sleeve” (priority 2003, published 2007).
# Legend:
# [1] = release of mefenamic acid from intravaginal devices into water; type: physicochemical; conditions: 100 ml water, stirred gently, six devices
# From the text: The final intra-vaginal devices, namely coupons fixed directly to tampons or coupons fixed to tampons via the sleeve were then compared for their ability to release an active pharmaceutical, in this case mefenamic acid, when placed in an aqueous environment. This enabled functional ‘equivalence’ of the devices to be confirmed. Intravaginal devices constructed by the direct application of coupons to tampons were compared to intravaginal devices constructed using the mesh sleeve. Devices were placed in beakers containing 100 ml water and stirred gently for varying periods of time. The fluid phase was removed brought to a […] with sodium hydroxide and the concentration of mefenamic determined by spectrophotometry.
# [2] = clinical study: circulating plasma concentrations of mefenamic acid after intravaginal devices; type: in vivo; conditions: human volunteers, intravaginal tampon with directly attached coupons
# Protocol: The purpose of the device described here is to administer mefenamic acid via the intravaginal route. In one clinical study, intravaginal devices, using the direct process of attachment of coupons to tampons were prepared to cGMP (Good Manufacturing Procedure); devices were prepared containing 20, 40 or 80 mg per tampon.
# These were administered to human volunteers in a study conforming to Good Clinical Procedure and circulating plasma concentrations of mefenamic acid were determined after drawing blood samples.
# [3] = 20 mg mefenamic acid per tampon
# [4] = 40 mg mefenamic acid per tampon
# [5] = 80 mg mefenamic acid per tampon
structure (smiles),measurement,setting,value
"Cc1cccc(Nc2ccccc2C(=O)O)c1C [mefenamic acid, 2-[2,3-Dimethylphenylamino] benzoid acid]",mefenamic acid recovered in the aqueous phase (mean),"[1]; devices with coupons attached via the mesh sleeve, 80 mg per sleeve",73.7 mg
same,mefenamic acid recovered in the aqueous phase (mean),"[1]; devices with coupons directly attached to tampons, 80 mg per tampon",72.8 mg
same,Accumulated dose (0-7),[2]; [3],44.7
same,Max. plasma conc.,[2]; [3],4.23 ng/mL
same,Accumulated dose (0-7),[2]; [4],197
same,Max. plasma conc.,[2]; [4],14.9 ng/mL
same,Accumulated dose (0-7),[2]; [5],257
same,Max. plasma conc.,[2]; [5],19.5 ng/mL
